Where a name gives a salt, the structure may show the parent alone.
Columns and labels:
[1] = biological target: T1, human dopamine D2L receptors (long isoform) (Homo sapiens, UniProt P14416); assay: Dopamine D2L receptor binding, [125I] iodospiperone displacement; conditions: membranes from HEK-293 cells stably expressing receptor; 0.01 nM [125I] iodospiperone; 25° C., 60 minutes; read-out: Ki(D2)*
T1 construct: expressed in transfected cells; membranes)
Description: (§1) The substance to be tested was either dissolved in methanol/Chremophor® (BASF-AG) or in dimethyl sulfoxide and then diluted with water to the desired concentration.
(§2) Each assay mixture was run in triplicate.
The incubation buffer contained 50 mM tris, 120 mM NaCl, 5 mM KCl, 2 mM CaCl2, 2 mM MgCl2 and 0.1% bovine serum albumin. The buffer was adjusted to pH 7.4 with HCl.
(§3) After having been incubated at 25° C. for 60 minutes, the assay mixtures were filtered through a Whatman GF/B glass fiber filter under vacuum using a cell collecting device. The filters were transferred to scintillation viols using a filter transfer system. After 4 ml of Ultima Gold® (Packard) have been added, the samples were shaken for one hour and the radioactivity was then counted in a Beta-Counter (Packard, Tricarb 2000 or 2200CA). The cpm values were converted into dpm using a standard quench series and the program belonging to the instrument.
(§4) The inhibition curves were analyzed by means of iterative nonlinear regression analysis using the Statistical Analysis System (SAS) which is similar to the “LIGAND” program described by Munson and Rodbard.

[2] = biological target: T2, human dopamine D3 receptors (Homo sapiens, UniProt P35462); assay: Dopamine D3 receptor binding, [125I]-iodosulpride displacement; conditions: for Ki: membranes from HEK-293 cells stably expressing receptor, 0.1 nM [125I]-iodosulpride, 25° C., 60 minutes; for Ki(D2)*/Ki(D3)*: selectivity, ratio of receptor binding constants D2/D3
T2 construct: expressed in transfected cells; membranes)
Description: as §1, §2
The incubation buffer contained 50 mM tris, 120 mM NaCl, 5 mM KCl, 2 mM CaCl2, 2 mM MgCl2 and 0.1% bovine serum albumin, 10 μM quinolone and 0.1% ascorbic acid (prepared fresh daily). The buffer was adjusted to pH 7.4 with HCl.
as §3, §4

T2 sequence (P35462 whole entry): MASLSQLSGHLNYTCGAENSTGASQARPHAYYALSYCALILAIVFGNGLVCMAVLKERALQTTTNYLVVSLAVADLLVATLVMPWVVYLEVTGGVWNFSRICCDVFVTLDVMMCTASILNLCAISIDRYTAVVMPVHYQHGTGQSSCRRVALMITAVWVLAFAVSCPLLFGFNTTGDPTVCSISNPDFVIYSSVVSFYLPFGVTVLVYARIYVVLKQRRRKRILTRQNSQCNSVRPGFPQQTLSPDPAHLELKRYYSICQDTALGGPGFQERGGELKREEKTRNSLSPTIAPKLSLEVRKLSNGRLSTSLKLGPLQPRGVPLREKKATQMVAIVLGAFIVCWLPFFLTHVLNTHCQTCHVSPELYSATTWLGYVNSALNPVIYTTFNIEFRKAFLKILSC
T1 sequence (P14416 whole entry, canonical isoform): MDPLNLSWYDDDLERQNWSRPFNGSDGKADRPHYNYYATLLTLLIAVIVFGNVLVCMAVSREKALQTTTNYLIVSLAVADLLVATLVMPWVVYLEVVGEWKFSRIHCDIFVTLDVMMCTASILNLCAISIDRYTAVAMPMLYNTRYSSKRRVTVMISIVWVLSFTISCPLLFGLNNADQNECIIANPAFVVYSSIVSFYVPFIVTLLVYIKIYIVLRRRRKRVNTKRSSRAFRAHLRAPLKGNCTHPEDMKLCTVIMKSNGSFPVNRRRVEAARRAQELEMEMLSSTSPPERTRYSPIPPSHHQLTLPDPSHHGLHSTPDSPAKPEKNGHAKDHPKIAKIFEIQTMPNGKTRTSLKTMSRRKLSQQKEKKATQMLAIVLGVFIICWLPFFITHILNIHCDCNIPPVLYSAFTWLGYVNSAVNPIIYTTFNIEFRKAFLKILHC

Row | Ki [1] | Ki [2] | Ki(D2)*/Ki(D3)* [2] | Compound
1 | 0.0586 µM | 0.00132 µM | 45 | CCCNCC1CCc2cc(NS(=O)(=O)c3ccc(C(C)C)cc3)ccc21 (stereo not shown) [Example 10, 4-Isopropyl-N-(1-propylaminomethyl-indan-5-yl)-benzenesulfonamide]
2 | 0.119 µM | 0.00172 µM | 69 | CCCNCC1CCCc2cc(NS(=O)(=O)c3ccc(C(C)C)cc3)ccc21 (stereo not shown) [Example 5, 4-Isopropyl-N-(5-propylaminomethyl-5,6,7,8-tetrahydro-naphthalen-2-yl)-benzenesulfonamide×HCl]
3 | 0.137 µM | 0.0053 µM | 26 | CCCN1CCC2c3ccc(NS(=O)(=O)c4ccc(C(C)C)cc4)cc3NC2C1 (stereo not drawn) [Example 12, 4-Isopropyl-N-(2-propyl-2,3,4,4a,9,9a-hexahydro-1H-beta-carbolin-7-yl)-benzenesulfonamide]
4 | – | 0.0033 µM | 19 | CCCN1CC2CCc3cc(NS(=O)(=O)c4ccc(OC(F)F)cc4)ccc3C2C1.Cl (stereo not shown) [Example 17, 4-Difluoromethoxy-N-(2-propyl-2,3,3a,4,5,9b-hexahydro-1H-benzo[e]isoindol-7-yl)-benzenesulfonamide, hydrochloride]
5 | 7.64 µM | 0.0634 µM | 120 | CCCNCC1Cc2cc(NS(=O)(=O)c3ccc(OC(F)(F)F)cc3)ccc2N1 (stereo not shown) [Example 4, N-(2-Propylaminomethyl-2,3-dihydro-1H-indol-5-yl)-4-trifluoromethoxy-benzenesulfonamide×HCl]
6 | – | 0.0018 µM | 36 | CCCN1CC2CCc3cc(NS(=O)(=O)c4ccc(C(C)C(F)(F)F)cc4)ccc3C2C1.Cl (stereo not shown) [Example 15, N-(2-Propyl-2,3,3a,4,5,9b-hexahydro-1H-benzo[e]isoindol-7-yl)-4-(2,2,2-trifluoro-1-methylethyl)-benzenesulfonamide, hydrochloride]
7 | 0.232 µM | 0.0043 µM | 54 | C=CCNCC1Cc2cccc(NS(=O)(=O)c3ccc(C(C)C)cc3)c2C1 (stereo not shown) [Example 9, 4-Isopropyl-N-(2-allylaminomethyl-indan-4-yl)-benzenesulfonamide]
8 | – | 0.0101 µM | 5 | CCCN1CC2CCc3c(cc(Cl)c(NS(=O)(=O)c4ccc(C(C)C)cc4)c3Cl)C2C1.Cl (stereo not shown) [Example 13, N-(6,8-Dichloro-2-propyl-2,3,3a,4,5,9b-hexahydro-1H-benzo[e]isoindol-7-yl)-4-isopropyl-benzenesulfonamide, hydrochloride]
9 | 0.055 µM | 0.055 µM | 23 | CCCNCc1cc2cc(NS(=O)(=O)c3ccc(OC(F)(F)F)cc3)ccc2[nH]1 [Example 3, N-(2-Propylaminomethyl-1H-indol-5-yl)-4-trifluoromethoxy-benzenesulfonamide×½ fumaric acid]
10 | 0.517 µM | 0.0094 µM | 55 | CCCNCC1Cc2cc(NS(=O)(=O)c3ccc(C(C)C)cc3)ccc2N1 (stereo not shown) [Example 2, 4-Isopropyl-N-(2-propylaminomethyl-2,3-dihydro-1H-indol-5-yl)-benzenesulfonamide×HCl]
11 | – | 0.0036 µM | 66 | CCCN1CC2CCc3cc(NS(=O)(=O)c4ccc(OC(F)(F)F)cc4)ccc3C2C1.Cl (stereo not shown) [Example 16, N-(2-Propyl-2,3,3a,4,5,9b-hexahydro-1H-benzo[e]isoindol-7-yl)-4-trifluoromethoxy-benzenesulfonamide hydrochloride]
12 | 0.398 µM | 0.0074 µM | 54 | CCCNCC1Cc2ccc(NS(=O)(=O)c3ccc(C(C)C)cc3)cc2C1 (stereo not shown) [Example 7, 4-Isopropyl-N-(2-propylaminomethyl-indan-5-yl)-benzenesulfonamide]
13 | – | 0.0005 µM | 28 | CCCN1CC2CCc3cc(NS(=O)(=O)c4ccc(C(C)C)cc4)ccc3C2C1.Cl (stereo not shown) [Example 14, 4-Isopropyl-N-(2-propyl-2,3,3a,4,5,9b-hexahydro-1H-benzo[e]isoindol-7-yl)-benzenesulfonamide, hydrochloride]
14 | 0.225 µM | 0.0058 µM | 39 | CCCNCc1cc2cc(NS(=O)(=O)c3ccc(C(C)C)cc3)ccc2[nH]1 [Example 1, 4-Isopropyl-N-(2-propylaminomethyl-1H-indol-5-yl)-benzenesulfonamide]

From patent publication US8486984B2, “Aminomethyl substituted bicyclic aromatic compounds suitable for treating disorders that respond to modulation of the dopamine D3 receptor” (Abbott GmbH & Co., KG, priority 2004, dated 2013)
